Results taken from PMC3543460, “Structure-Activity Relationships of the Antimicrobial Peptide Arasin 1 — And Mode of Action Studies of the N-Terminal, Proline-Rich Region” (PLoS ONE, 2013).
Values after ≈ are worked out from the molar mass of the structure shown. Peptide text beside a SMILES is read from it. * marks the point of attachment. Acm = CC(=O)NC*

Assays:
[1] = system: E. coli ATCC 25922; assay type: cell-based, Escherichia coli; conditions: ATCC 25922, 24 h
Experimental: (§1) Escherichia coli (ATCC 25922), E. coli HB101, Pseudomonas aeruginosa (ATCC 27853), Staphylococcus aureus (ATCC 9144) and Corynebacterium glutamicum (ATCC 13032) were grown at 37°C in Mueller Hinton agar (MH; Difco Laboratories, Detroit, USA). The yeasts Candida albicans (ATCC 10231) and Saccharomyces cerevisiae spp and the mold Botrytis cinerea 101 [33] were cultivated on potato dextrose agar supplemented with 2% glucose at room temperature (RT).
(§2) Determination of the MIC against bacteria was performed by continuous monitoring of bacterial growth using a Bioscreen C microbiology reader (Labsystems Oy, Helsinki, Finland). The synthetic peptides were tested for antibacterial and antifungal activity at final concentrations (prepared from serial two-fold dilutions) ranging from 0.2 µM to 100 µM. The test was performed in 100-well flat-bottomed honeycomb plates, in which 50 µl peptide solution was incubated with 50 µl of a suspension of an actively growing culture of bacteria diluted to a starting concentration of 2.5×10^5 CFU/ml in Mueller Hinton Broth (MHB). The growth chamber was maintained at 37°C during the incubation period. The absorbance was measured by a turbidometric method with vertical light photometry and a wide band filter (420–580 nm). MIC was defined as the lowest concentration resulting in no visible bacterial growth after 24 h.

[2] = system: C. glutamicum ATCC 13032; assay type: cell-based, Corynebacterium glutamicum; conditions: ATCC 13032, 24 h
Experimental: as §1, §2

[3] = system: S. cerevisiae spp.; assay type: cell-based, Saccharomyces cerevisiae; conditions: 48 h
Experimental: as §1
(§3) Fungal spores were dissolved in potato dextrose broth (Difco, Lawrence, KS, USA) and the cell concentration was determined and adjusted after counting in a Bürker chamber. Botrytis cinerea was filtered through a piece of cotton before counting. An aliquot of 50 µl of fungal spores (final concentration 2×10^5 spores/ml) were inoculated in 96-well Nunclon™ microtitre plates (Nagle Nunc Int. Roskilde, Denmark) along with 50 µl of synthetic peptide dissolved in Milli-Q water. Cultures were grown in a dark moist chamber without shaking at 20°C for S. cerevisiae and B. cinerea, and at 37°C for C. albicans. Growth inhibition was determined microscopically after 48 h of incubation. Inhibitory concentrations (IC50) was defined as the lowest concentration tested which yielded less than 50% visible growth compared to the growth control (fungi). Each peptide was tested in parallels in three individual runs for the antimicrobial assays.

[4] = system: S. aureus ATCC 9144; assay type: cell-based, Staphylococcus aureus; conditions: ATCC 9144, 24 h
Experimental: as §1, §2

[5] = system: B. cinerea 101; assay type: cell-based, Botrytis cinerea; conditions: for IC50: 101, 48 h; for IC50 B. cinerea 101: lowest concentration tested giving less than 50% visible growth vs growth control, potato dextrose medium, 20°C, 48 h, three individual experiments
Experimental: as §1, §3

[6] = system: P. aeruginosa ATCC 27853; assay type: cell-based, Pseudomonas aeruginosa; conditions: ATCC 27853, 24 h
Experimental: as §1, §2

[7] = system: C. albicans ATCC 10231; assay type: cell-based, Candida albicans; conditions: for IC50: ATCC 10231, 48 h; for IC50 C. albicans ATCC 10231: lowest concentration tested giving less than 50% visible growth vs growth control, potato dextrose medium, 37°C, 48 h, three individual experiments
Experimental: as §1, §3

[8] = system: E. coli HB101; test: Antibacterial MIC assay (Bioscreen C growth monitoring); assay type: cell-based, Escherichia coli; conditions: lowest concentration with no visible bacterial growth after 24 h; 37°C, 50% MH, 2.5×10^5 cells/mL; representative of three individual experiments
Experimental: as §1, §2

| SMILES | MIC E. coli ATCC 25922 [1] [µM] | MIC C. glutamicum ATCC 13032 [2] [µM] | IC50 [3] [µM] | MIC S. aureus ATCC 9144 [4] [µM] | IC50 [5] [µM] | MIC P. aeruginosa ATCC 27853 [6] [µM] | IC50 [7] [µM] | IC50 C. albicans ATCC 10231 [7] [µM] | MIC E. coli HB101 [8] [µM] | IC50 B. cinerea 101 [5] [µM] |
| --- | --- | --- | --- | --- | --- | --- | --- | --- | --- | --- |
| N=C(N)NCCC[C@H](NC(=O)[C@@H](N)CO)C(=O)N[C@@H](Cc1c[nH]c2ccccc12)C(=O)N1CCC[C@H]1C(=O)N[C@@H](CO)C(=O)N1CCC[C@H]1C(=O)NCC(=O)N[C@@H](CCCNC(=N)N)C(=O)N1CCC[C@H]1C(=O)N[C@@H](CCCNC(=N)N)C(=O)N1CCC[C@H]1C(=O)N[C@@H](Cc1ccccc1)C(=O)N1CCC[C@H]1C(=O)NCC(=O)O [Arasin 1(1–14)] (H-SRWPSPGRPRPFPG-OH; N-terminus and C-terminus assumed) | >100 | >100 | > 100 | >100 | > 100 | >100 | > 100 |  |  |  |
| CC[C@H](C)[C@H](NC(=O)[C@@H]1CCCN1C(=O)[C@H](CCCCN)NC(=O)[C@@H]1CCCN1C(=O)[C@H](CCCNC(=N)N)NC(=O)CNC(=O)[C@@H]1CCCN1C(=O)[C@H](Cc1ccccc1)NC(=O)[C@@H]1CCCN1C(=O)[C@H](CCCNC(=N)N)NC(=O)[C@@H]1CCCN1C(=O)[C@H](CCCNC(=N)N)NC(=O)CNC(=O)[C@@H]1CCCN1C(=O)[C@H](CO)NC(=O)[C@@H]1CCCN1C(=O)[C@H](Cc1c[nH]c2ccccc12)NC(=O)[C@H](CCCNC(=N)N)NC(=O)[C@@H](N)CO)C(=O)N[C@@H](Cc1ccccc1)C(=O)O [Arasin 1(1–20)] (H-SRWPSPGRPRPFPGRPKPIF-OH; N-terminus and C-terminus assumed) | >100 | 12.5 to 25 | 25 | >100 | 25 to 50 | >100 |  | 50 |  |  |
| CC[C@H](C)[C@H](NC(=O)[C@@H]1CCCN1C(=O)[C@H](CCCCN)NC(=O)[C@@H]1CCCN1C(=O)[C@H](CCCNC(=N)N)NC(=O)CNC(=O)[C@@H]1CCCN1C(=O)[C@H](Cc1ccccc1)NC(=O)[C@@H]1CCCN1C(=O)[C@H](CCCNC(=N)N)NC(=O)[C@@H]1CCCN1C(=O)[C@H](CCCNC(=N)N)NC(=O)CNC(=O)[C@@H]1CCCN1C(=O)[C@H](CO)NC(=O)[C@@H]1CCCN1C(=O)[C@@H](N)Cc1c[nH]c2ccccc12)C(=O)N[C@@H](Cc1ccccc1)C(=O)N[C@@H](CCCNC(=N)N)C(=O)N1CCC[C@H]1C(=O)N[C@@H](CCCNC(=N)N)C(N)=O [Arasin 1(3–23)] (H-WPSPGRPRPFPGRPKPIFRPR-NH2; N-terminus assumed) | 25 to 50 | 3.1 (≈ 7.74 µg/mL) | 12.5 | >100 | 25 | 100 (≈ 250 µg/mL) | 25 |  | 12.5 (≈ 31.2 µg/mL) |  |
| CC[C@H](C)[C@H](NC(=O)[C@@H]1CCCN1C(=O)[C@H](CCCCN)NC(=O)[C@@H]1CCCN1C(=O)[C@H](CCCNC(=N)N)NC(=O)CNC(=O)[C@@H]1CCCN1C(=O)[C@H](Cc1ccccc1)NC(=O)[C@@H]1CCCN1C(=O)[C@H](CCCNC(=N)N)NC(=O)[C@@H]1CCCN1C(=O)[C@H](CCCNC(=N)N)NC(=O)CNC(=O)[C@@H]1CCCN1C(=O)[C@@H](N)CO)C(=O)N[C@@H](Cc1ccccc1)C(=O)N[C@@H](CCCNC(=N)N)C(=O)N1CCC[C@H]1C(=O)N[C@@H](CCCNC(=N)N)C(N)=O [Arasin 1(5–23)] (H-SPGRPRPFPGRPKPIFRPR-NH2; N-terminus assumed) | >100 | 6.3 (≈ 14 µg/mL) | 12.5 | >100 | 25 | >100 | 25 |  | 100 (≈ 221 µg/mL) |  |
| CC[C@H](C)[C@H](NC(=O)[C@@H]1CCCN1C(=O)[C@H](CCCCN)NC(=O)[C@@H]1CCCN1C(=O)[C@H](CCCNC(=N)N)NC(=O)CNC(=O)[C@@H]1CCCN1C(=O)[C@H](Cc1ccccc1)NC(=O)[C@@H]1CCCN1C(=O)[C@H](CCCNC(=N)N)NC(=O)[C@@H]1CCCN1C(=O)[C@H](CCCNC(=N)N)NC(=O)CN)C(=O)N[C@@H](Cc1ccccc1)C(=O)N[C@@H](CCCNC(=N)N)C(=O)N1CCC[C@H]1C(=O)N[C@@H](CCCNC(=N)N)C(N)=O [Arasin 1(7–23)] (H-GRPRPFPGRPKPIFRPR-NH2; N-terminus assumed) | 50 to 100 | 3.1 (≈ 6.29 µg/mL) | 12.5 | >100 |  | 50 to 100 | 25 |  | 25 (≈ 50.8 µg/mL) | 50 |
| CC[C@H](C)[C@H](NC(=O)[C@@H]1CCCN1C(=O)[C@H](CCCCN)NC(=O)[C@@H]1CCCN1C(=O)[C@H](CCCNC(=N)N)NC(=O)CNC(=O)[C@@H]1CCCN1C(=O)[C@H](Cc1ccccc1)NC(=O)[C@@H]1CCCN1C(=O)[C@H](CCCNC(=N)N)NC(=O)[C@@H]1CCCN1)C(=O)N[C@@H](Cc1ccccc1)C(=O)N[C@@H](CCCNC(=N)N)C(=O)N1CCC[C@H]1C(=O)N[C@@H](CCCNC(=N)N)C(N)=O [Arasin 1(9–23)] (H-PRPFPGRPKPIFRPR-NH2; N-terminus assumed) | >100 | 12.5 (≈ 22.7 µg/mL) | 25 | >100 |  | >100 |  | 50 | 100 (≈ 182 µg/mL) | 50 |
| CC[C@H](C)[C@H](NC(=O)[C@@H]1CCCN1C(=O)[C@H](CCCCN)NC(=O)[C@@H]1CCCN1C(=O)[C@H](CCCNC(=N)N)NC(=O)CNC(=O)[C@@H]1CCCN1C(=O)[C@H](Cc1ccccc1)NC(=O)[C@@H]1CCCN1C(=O)[C@H](CCCNC(=N)N)NC(=O)[C@@H]1CCCN1C(=O)[C@H](CCCNC(=N)N)NC(=O)CNC(=O)[C@@H]1CCCN1C(=O)[C@H](CO)NC(=O)[C@@H]1CCCN1C(=O)[C@H](Cc1c[nH]c2ccccc12)NC(=O)[C@H](CCCNC(=N)N)NC(=O)[C@@H](N)CO)C(=O)N[C@@H](Cc1ccccc1)C(=O)N[C@@H](CCCNC(=N)N)C(=O)N1CCC[C@H]1C(=O)N[C@@H](CCCNC(=N)N)C(=O)N1CCC[C@H]1C(=O)N[C@@H](CSCNC(C)=O)C(=O)N[C@@H](CC(N)=O)C(=O)N[C@@H](CSCNC(C)=O)C(=O)N[C@@H](Cc1ccc(O)cc1)C(=O)N[C@@H](C)C(=O)N1CCC[C@H]1C(=O)N1CCC[C@H]1C(=O)N[C@@H](CSCNC(C)=O)C(=O)N1CCC[C@H]1C(=O)N[C@@H](CSCNC(C)=O)C(=O)N[C@@H](CC(=O)O)C(=O)N[C@@H](CCCNC(=N)N)C(=O)N[C@@H](Cc1c[nH]c2ccccc12)C(=O)O [Arasin 1-Acm] (H-SRWPSPGRPRPFPGRPKPIFRPRPC(Acm)NC(Acm)YAPPC(Acm)PC(Acm)DRW-OH; N-terminus and C-terminus assumed) | 25 to 50 | 0.8 (≈ 3.71 µg/mL) | 12.5 | >100 | 12.5 to 50 | 100 (≈ 463 µg/mL) | 25 |  |  |  |
